Where “and” joins values, the source holds several entries; their conditions need not be identical. Identical values can stand only once.
What was measured:
[1] = target: HTLV-III reverse transcriptase (Human immunodeficiency virus type 1 group M subtype B, UniProt P03366); assay: Purified HTLV-III reverse transcriptase assay; assay type: biochemical
Protocol: Source of HTLV-III Reverse Transcriptase and Assay Conditions. HTLV-III reverse transcriptase used in these studies was purified by sequential chromatography on DEAE, cellulose, phosphocellulose and hydroxyapatite. The purified anzyme was stored in 50 mM Tris-HC1 (pH 7.5), 1 mM dithiothreitol (DTT), 0.01% Triton X-100 and 20% glycerol. Reverse transcriptase assays were carried out in a reaction mixture (50 μl)containing 50 mM Tris-HC1 (pH 7.5), 5 mM DTT, 100mM potassium chloride, 0.01% Triton X-100 or NP40, 10 μg/ml (dT)15.(A)n as template primer and/^3H/deoxythymidine triphosphate (/^3H/-dTTP). The reaction mixture was incubated for 1 hour at 37°, and the reaction was stopped by the addition of 50 μg of yeast tRNA and 2 ml of 10% solution of trichloroacetic acid (TCA) containing 1 mM sodium pyrophosphate. The samples were filtered on millipore filters (0.45 μm), washed first with 5% TCA solution (5 times) and then with 2 ml of 70% ethanol. The filters were dried under a heat lamp, scintillation fluid was added and the radioactivity counted in a β-scintillation counter.
The effect of foscarnet on purified HTLV-III reverse transcriptase (RT) was assayed as a function of drug concentration.

[2] = Steady-state serum level in patients on constant intravenous infusion; settings: constant intravenous infusion for 1-4 weeks, most cases
Protocol: These patients were given foscarnet intravenously by constant infusion for 1-4 weeks and, at steady state, serum levels of foscarnet reached in most cases were 300-450 μM (100-150 μg/ml).

cytomegalovirus (CMV) = assay: Clinical effect of infusion in patients with severe herpesvirus infections; assay type: in vivo; settings: intravenous constant infusion 1-4 weeks, severe herpesvirus infections mainly CMV
HTLV-III = assay: Replication of HTLV-III in H9 cells (RT activity readout); assay type: cell-based; settings: Human immunodeficiency virus 1, 144 h
Protocol: HTLV-III Infection of H9 Cells. H9 cells constitute a human cell line that can be chronically infected with HTLV-III virus. (Science 1984; 224: 497-500). H9 cells were treated with polybrene (2 μg/ml) for 30 min. at 37° C., washed free of polybrene and infected with 2×10^8 HTLV-III virus particles per 4×10^5 H9 cells. […] The cultures were analyzed for HTLV-III reverse transcriptase activity as described above.
The effect of foscarnet on the replication of HTLV-III in H9 cells was determined as a function of both foscarnet concentration and time of incubation.

Uninfected H9 cells = assay: Growth inhibition of uninfected H9 cells; assay type: cell-based; settings: Homo sapiens, 750 μM foscarnet
variety of cell types = assay: Cell growth inhibition in a variety of cell types; assay type: cell-based
[3] = tested on: labial and genital herpes; assay: Clinical evaluation of topical formulation against labial and genital herpes; assay type: in vivo

O=C(O)P(=O)(O)O [foscarnet, trisodium phosphonoformate hexahydrate]
IC50 [1]: 0.1 to 2 µM
mode of inhibition of reverse transcriptase ([1]; with respect to substrate and template): noncompetitive with respect to substrate and uncompetitive with respect to template
steady state serum level [2]: 300-450 μM and 100-150 μg/ml
clinical effect in treated patients (cytomegalovirus (CMV)): clear indications of a beneficial effect
inhibition at 50 µM (HTLV-III; 50 μM foscarnet, 6 days of incubation): 50%
inhibition at 300 µM (HTLV-III; 300 μM foscarnet, six days of incubation): > 95%
inhibition at 750 µM (Uninfected H9 cells): < 50%
cell growth after removal of the drug (variety of cell types; stationary cells treated with 10 mM foscarnet): normal cell growth can be seen
reversibility of cell growth inhibition (variety of cell types; variety of cell types): reversible
IC50 (variety of cell types; variety of cell types, read-out: concentration inhibiting cell growth by 50%): ~1000 µM
clinical activity and tolerability [3]: active and well tolerated
